Experimental data reported in patent US11002524B2, “Cyclic compounds and process for the preparation thereof” (Council of Scientific & Industrial Research, priority 2016, dated 2021).
Converted amounts (≈) assume the structure as drawn. Where two headings read alike, the source gives them in different places.

Test system: Salmonella enterica strain AMC (ATCC #6539)
Experiment: Antibacterial MIC assay (Promega BacTiter-Glo microbial cell viability assay)
Assay type: cell-based
Protocol: (§1) The minimum inhibitory concentrations (MICs) are determined using the Promega Bac Titer-Glo microbial cell viability assay, which measures cell viability by quantitation of ATP present, an indicator of metabolic activity of cells. The assays are carried out using Salmonella enterica strain AMC (ATCC #6539), Inocula of S. enterica are prepared from 12-h broth cultures grown in Mueller Hinton broth and the suspensions were then adjusted to a turbidity of 0.5 McFarland. […] Bacterial cells are treated with hunanamycin analogs for 24 hours at ranges from 0.4 to 40 μg/mL and ciprofloxacin as a control ranging from 0.03 to 10 μg/mL. The OD600 is measured using an Envision multi-modal plate reader (Perkin-Elmer, Inc.).
as §1, with “(MICs) were” for “(MICs) are”, “assays were” for “assays are”, “enterica were” for “enterica are”, “cells were” for “cells are”, “OD600 was” for “OD600 is”, “Inc.). The antibiotic assays were performed in Prof. John B. MacMillan's lab, Department of Biochemistry, University of Texas Southwestern Medical Center at Dallas, USA.” for “Inc.).”

[1] = S. enterica AMC ATCC #6539, 24 hours treatment, 0.4 to 40 μg/mL, Mueller Hinton broth, Table 1 in Example 9
[2] = Salmonella enterica, ATCC6539, S. enterica AMC ATCC #6539, 24 hours treatment, 0.4 to 40 μg/mL, Mueller Hinton broth, Table 1 in description, read-out: MIC

Cc1cc2[nH]c(=O)c(=O)n(C[C@H](O)[C@H](O)[C@H](O)CO)c2cc1C [Compound 2, 6,7-dimethyl-1-((2S,3S,4R)-2,3,4,5-tetrahydroxypentyl)-1,4-dihydroquinoxaline-2,3-dione]
MIC [1]: >32 µg/mL | MIC [2]: > 32 µg/mL

CC(C)=CCn1c(=O)c(=O)n(C[C@H](O)[C@H](O)[C@H](O)CO)c2cc(C)c(C)cc21 [Compound 3, 6,7-dimethyl-1-(3-methylbut-2-en-1-yl)-4-((2S,3S,4R)-2,3,4,5-tetrahydroxypentyl)-1,4-dihydroquinoxaline-2,3-dione]
MIC [1]: 16 µg/mL (≈ 40.8 µM) | MIC [2]: 16 µg/mL (≈ 40.8 µM)

C=CCn1c(=O)c(=O)n(C[C@H](O)[C@H](O)[C@H](O)CO)c2cc(C)c(C)cc21 [Compound 4, 1-allyl-6,7-dimethyl-4-((2S,3S,4R)-2,3,4,5-tetrahydroxypentyl)-1,4-dihydroquinoxaline-2,3-dione]
MIC [1]: 16 µg/mL (≈ 43.9 µM) | MIC [2]: 16 µg/mL (≈ 43.9 µM)

CCn1c(=O)c(=O)n(C[C@H](O)[C@H](O)[C@H](O)CO)c2cc(C)c(C)cc21 [Compound 5, 1-ethyl-6,7-dimethyl-4-((2S,3S,4R)-2,3,4,5-tetrahydroxypentyl)-1,4-dihydroquinoxaline-2,3-dione]
MIC [1]: >32 µg/mL | MIC [2]: > 32 µg/mL

Cc1cc2c(cc1C)n(C[C@H](O)[C@H](O)[C@H](O)CO)c(=O)c(=O)n2CC=C1CCCCC1 [Compound 6, 1-(2-cyclohexylideneethyl)-6,7-dimethyl-4-((2S,3S,4R)-2,3,4,5-tetrahydroxypentyl)-1,4-dihydroquinoxaline-2,3-dione]
MIC [1]: >32 µg/mL | MIC [2]: > 32 µg/mL

CCOC(=O)Cn1c(=O)c(=O)n(C[C@H](O)[C@H](O)[C@H](O)CO)c2cc(C)c(C)cc21 [Compound 7, ethyl 2-(6,7-dimethyl-2,3-dioxo-4-((2S,3S,4R)-2,3,4,5-tetrahydroxypentyl)-3,4-dihydroquinoxalin-1(2H)-yl)acetate]
MIC [1]: 16 µg/mL (≈ 39 µM) | MIC [2]: 16 µg/mL (≈ 39 µM)

Cc1cc2c(cc1C)n(C[C@H](O)[C@H](O)[C@H](O)CO)c(=O)c(=O)n2Cc1ccccc1 [Compound 8, 1-benzyl-6,7-dimethyl-4-((2S,3S,4R)-2,3,4,5-tetrahydroxypentyl)-1,4-dihydroquinoxaline-2,3-dione]
MIC [1]: >32 µg/mL | MIC [2]: > 32 µg/mL

Cc1cc2c(cc1C)n(C[C@H](O)[C@H](O)[C@H](O)CO)c(=O)c(=O)n2CCC1CCCCC1 [Compound 10, 1-(2-cyclohexylethyl)-6,7-dimethyl-4-((2S,3S,4R)-2,3,4,5-tetrahydroxypentyl)-1,4-dihydroquinoxaline-2,3-dione]
MIC [1]: 8 µg/mL (≈ 18.4 µM) | MIC [2]: 8 µg/mL (≈ 18.4 µM)

Cc1cc2c3c(c1C)C(C)(C)CCn3c(=O)c(=O)n2C[C@H](O)[C@H](O)[C@H](O)CO [Huanamycin A, 7,7,8,9-tetramethyl-1-((2S,3S,4R)-2,3,4,5-tetrahydroxypentyl)-6,7-dihydro-1H,5H-4l4,41l5-4,41-methanopyrido[3,2,1-ij]quinoxaline-2,3-dione, reference compound]
MIC [1]: 8 µg/mL (≈ 20.4 µM) | MIC (Salmonella enterica, ATCC6539, 24 h): 8 µg/mL (≈ 20.4 µM)
